We go through six molecules from patent publication US6544727B1, “Methods and devices for the removal of psoralens from blood products” (Cerus Corporation, priority 1995, dated 2003).

Data set [1] deals with R17 bacteriophage. The data set is described as follows: R17 bacteriophage inactivation at constant concentration, varying doses of UV light. It counts as cell-based. Particulars: 1.0-3.0 J/cm^2, FIGS. 11-17. The protocol: Compounds of the present invention were also tested at a constant concentration for varying doses of UV light. Three sets of 1.5 mL tubes were prepared containing 0.6mL aliquots of R17 in DMEM (prepared as described above). The compound tested was added at the desired concentration and the samples were vortexed. The samples were then irradiated at intervals of 1.0 J/cm^2, until 3.0 J/cm^2 was reached. Between each 1.0 J/cm^2 interval, 100 μL was removed from each sample and placed in the first corresponding dilution tube, then five sequential dilutions were performed for each compound tested, at all 3 irradiation doses, as described above in this example.
Then 50 μL of Hfr 3000 bacteria was added to each tube, 3 mL of top agar was added and the tube contents were vortexed The contents of each tube was poured into its own LB plate and the plates were incubated overnight at 37° C. Plaques were counted by visual inspection the following morning.

Data set [2] concerns HIV-1. Particulars: 1 minute irradiation, starting titer approximately 5.4 logs (Table 11).
Protocol: As in the R17 assay, small aliquots of the compounds listed in TABLES 10 and 11, below, at the concentrations listed in the table, were added to stock HIV-1 to a total of 0.5 mL. The stock HIV (10^5−10^7 plaque forming units/mL) was in DMEM15% FBS. […] Controls included HIV-1 stock only, HIV-1 plus UVA only, and HIV-1 plus the highest concentration of each psoralen tested, with no UVA. Post irradiation, all samples were store frozen at −70° C. until assayed for infectivity by a microtiter plaque assay. Aliquots for measurement of residual HIV infectivity in the samples treated with a compound of the present invention were withdrawn and cultured.
Residual HIV infectivity was assayed using an MT-2 infectivity assay. […] The assay medium was 85% DMEM (with a high glucose concentration) containing 100 μg of streptomycin, 100 U of penicillin, 50 μg of gentamicin, and 1 μg of amphotericin B per mL, 15% FBS and 2 μg of Polybrene (Sigma Chemical Co., St. Louis, Mo.) per mL. Test and control samples from the inactivation procedure were diluted in 50% assay medium and 50% normal human pooled plasma The samples were serially diluted directly in 96-well plates (Corning Glass Works, Corning, N.Y.). The plates were mixed on an oscillatory shaker for 30 seconds and incubated at 37° C. in a 5% CO2 atmosphere for 1 to 18 hours. […] After an additional 1 hour of incubation at 37° C. in 5% CO2, 0.075 mL of assay medium containing 1.6% SeaPlaque agarose (FMC Bioproducts, Rockland, Me.) and prewarmed to 38.5° C. was added to each well. The plates were kept at 37° C. for a few minutes until several plates had accumulated and then centrifuged in plate carriers at 600×g for 20 minutes in a centrifuge precooled to 10° C. In the centrifuge, cell monolayers formed prior to gelling of the agarose layer. The plates were incubated for 5 days at 37° C. in 5% CO2 and stained by the addition of 0.05 mL of 50 μg/mL propidium iodide (Sigma Chemical Co.) in phosphate-buffered saline (pH 7.4) to each well. After 24 to 48 hours, the red fluorescence-stained microplaques were visualized by placing the plates on an 8,000 μW/cm^2304 nm UV light box (Fotodyne, Inc., New Berlin, Wis.). The plaques were counted at a magnification of x20 to x25 through a stereomicroscope.
Data set [3] is described as follows: HPLC retention time as rough estimate of hydrophobicity. In kind it is physicochemical. Conditions: C-18 reversed phase, methanol/KH2PO4 gradient. On the procedure: Adsorption data were then obtained by HPLC analysis on the test and control samples. Specifically, a 200 μl sample volume of PC was removed from each tube following the incubation period (special care being taken to ensure that no adsorbent particles were removed with the test samples). […] The addition of methanol lyses platelets and precipitates plasma proteins so that psoralen contained within the platelets is not excluded by the assay.
Since each of the psoralens were analyzed using the same type of BPLC assay, one can use the psoralens' relative retention times to rank them according to increasing hydrophobicity. […] Strong interactions with cells or plasma proteins could compete with adsorption, thereby interfering with resin binding.

Data set [4] concerns R17 bacteriophage. Briefly: R17 bacteriophage inactivation assay, varying compound concentration. In kind it is cell-based. Particulars: 32 μM; starting titer approx. 7.5 logs; 1 minute irradiation. The protocol: An r-17 bacteriophage assay was used in this example to predict pathogen inactivation efficiency and to determine nucleic acid binding of the photoreactive binding compounds of the present invention. In the r-17 assay, the bacteriophage was placed in a solution with each compound tested and was then irradiated. The ability of the phage to subsequently infect bacteria and inhibit their growth was measured. The bacteriophage was selected for its relatively accessible nucleic acid such that the culture growth inhibition would accurately reflect nucleic acid damage by the test compounds. The bacteriophage assay for nucleic acid binding to test compounds offers a safe and inexpensive procedure to identify compounds likely to display efficient pathogen inactivation.
The R17 was grown up in Hfr 3000 bacteria, approximate titer 5×10^11. (R17 and Hfr 3000 were obtained from American Tissue Culture Collection (ATCC), Washington, D.C.) The R17 phage stock was added to a solution of 15% fetal bovine serum in Dulbecco's Modified Eagles Medium (DMEM) to a final phage concentration of 10^9/mL. An aliquot (0.5 mL) was transferred to a 1.5 mL snap-top polyethylene tube. An aliquot (0.004-0.040 mL) of the test compound stock solution prepared in water, ethanol or dimethylsulfoxide at 0.80-8.0 mM was added to the tube. Compounds were tested at concentrations between 4 μM and 320 μM. […] The tubes were placed in a light device as described in EXAMPLE 1 and irradiated for between 1 and 10 minutes. Sterile 13 mL dilution tubes were prepared; each test compound required one tube with 0.4 mL of Luria broth (LB) and five tubes containing 0.5 mL of LB broth. To make the dilutions, a 0.100 mL aliquot of the irradiated solution of phage and test compound was added to the first dilution tube of 0.4 mL of media then 0.020 mL of this solution was added to the second tube of 0.5 mL medium (1:25). The second solution was then diluted serially (1:25) into the remaining tubes. To each diluted sample was added 0.050 mL of Hfr 3000 bacteria cultured overnight and 3 mL of molten LB top agar and the mixed materials were poured onto LB broth plates. After the top agar hardened, the plates were incubated at 37° C. overnight. The plaque forming units were then counted the following morning and the titer of the phage remaining after phototreatment was calculated based on the dilution factors.
The following controls were run: the “phage only” in which phage was not treated with test compound and not irradiated (listed as “starting titer” in the tables below); the “UV only” in which the phage was irradiated in the absence of test compound; and the “dark” control in which the phage/test compound solution was not irradiated before it was diluted and plated.

The subject of data set [5] is Salmonella typhimurium tester strains. Briefly: Ames Salmonella dark mutagenicity test, overall assessment. In kind it is cell-based. Conditions: two-fold or greater increase in revertants above background and dose dependence. On the procedure: A brief description for each procedure is given here. […] TA97a, TA98, TA1537 and TA1538 are frameshift tester strains. TA100 and TA102 are base-substitution tester strains.
This served as the background controls.
For all experiments, the pre-incubation procedure was used.

Data set [6] concerns Pseudomonas. Briefly: Bacterial inactivation, colony forming units. In kind it is cell-based. Conditions: 16 μM; 5 J/cm^2 irradiation; starting titer 6.5 logs. On the procedure: The bacteria, a strain of Pseudomonas, was inoculated into LB with a sterile loop and grown overnight in a shaker at 37° C. Based on the approximation that one OD at 610 mn is equivalent to 5×10^8 colony forming units (cfu)/mL, a 1:10 dilution of the culture was measured on a spectrophotometer, (manufactured by Shimatsu). The bacterial culture was added to a solution of 15% fetal bovine serum in DMEM to a final bacteria concentration of approximately 10^6/mL. An aliquot (0.8 mL) was transferred to a 1.5 mL snap-top polyethylene tube. An aliquot (0.004-0.040 mL) of the test compound stock solution prepared in water, ethanol or dimethylsulfoxide at 0.80-8.0 mM was added to the tube. Compounds were tested at a concentration of 16 μM. The tubes were placed in a light device as described in EXAMPLE 1 and irradiated with 1.3 J/cm^2, 1.2 J/cm^2, and finally 2.5 J/cm^2, for a total of 5 J/cm^2. 150 μL were removed for testing after each pulse period. Sterile 13 mL dilution tubes were prepared; each test compound required one tube with 0.4 mL of LB broth and four tubes containing 0.5 mL of LB broth. […] The colony forming units were then counted the following morning and the titer of the phage remaining after phototreatment was calculated based on the dilution factors. […]

For data set [7], the system named is p-selectin (GMP140). The data set is described as follows: GMP-140 (p-selectin) expression on platelets, flow cytometry with CD62. In kind it is cell-based, human. Particulars: 100 μM compound, 5 Joules/cm^2, 5 days storage; FIGS. 21C-24C. The protocol: To measure the effects of the present compounds and methods of decontamination on platelet function using these four indicators, four samples were prepared for each compound tested, two control samples and two containing compound. Three units of human platelets were obtained from the Sacramento Blood Center, Sacramento, Calif. These were each transferred under sterile conditions to 50 ml centrifuge tubes, then aliquots of each unit were transferred into a second set of 50 ml sterile centrifuge tubes. To each centrifuge tube containing platelet concentrate (PC), an aliquot of compound stock was added to reach a final concentration of 100 μM of compound. […] The samples were pipetted gently up and down to mix. Then aliquots (either 3 ml or 8 ml) of each sample was transferred to two sterile Teflon™ Medi-bags™ (American Fluoroseal Co., Silver Springs, Md.) (presently owned by The West Company, Lionville, Pa.). Samples were treated in one of two different sized bags, having either 3 ml or 8 ml capacity. […] For each compound tested, two control samples without compound were prepared by again removing aliquots of platelet concentrate (17 ml if using an 8 ml bag, […] if using a 3 ml bag) from the same one of the first set of 50 ml centrifuge tubes from which the compound sample was drawn, and dividing into Medibags, as before. One of each pair of Medibags containing a compound, and one of each pair of control Medibags, were illuminated for 5 Joules/cm^2 on the device described in Example 1, above. Then all experimental and control Medibags were placed on a platelet shaker for storage for 5 days. The same experiments were repeated several times to obtain more statistically meaningful data, as represented by “n”, the number of data points represented, in the graphs of FIGS. 21-24, discussed below.
On the technique in general: A flow cytometer gives signals particle by particle.

Data set [8] deals with mouse reticulocytes. Conditions: increased dose levels in male Balb/c mice. The protocol:
Male Balb/c mice were then injected with 0.1 ml of a compound solution via the tail vein. At least 3 mice were injected per dose level. Saline only was used as a negative control. For a positive control, cyclophosphamide (cycloPP) was administered at a dose of 30 mg/kg. In the experimental group, the injections were repeated once per day for four days. In the positive control group, the sample was administered only once, on day three. On day 5, several microliters of blood were withdrawn from each subject and smeared on a glass slide. Cells were fixed in absolute methanol and stored in a slide rack.
For analysis, cells were stained with acridine orange and visualized under a fluorescence microscope by counting: (i) the number of reticulocytes per 5000 erythrocytes; and (ii) the number of micronucleated reticulocytes per 1000 reticulocytes. Reticulocytes were distinguished by their red fluorescence due to the presence of RNA. Micronuclei were distinguished by their green fluorescence due to the presence of DNA. The percentage of reticulocytes (%PCE) was then calculated. A decrease in the frequency of […] in the percentage of reticulocytes, is an indication of bone marrow toxicity. The percentage of reticulocytes with micronuclei (%PCE with MN) was also calculated. An increase in %PCE with MN is a measure of clastogenicity.
After initial results were determined, the experiment was repeated using increased dose levels, until: (i) Micronucleus formation was seen; or (ii) Bone marrow toxicity was observed; or (iii) The lethal dose was reached; or (iv) A dose of 5 g/kg was administered.

In data set [9] the test system is platelets. Briefly: Platelet count, Sysmex cell counter. It counts as cell-based, human. Particulars: 100 μM compound, 5 Joules/cm^2, Day 5; FIGS. 21A-24A. The protocol: Samples were diluted 1:3 in blood bank saline.

Where two headings read alike, the source gives them in different places.

As to `Cc1oc2c(C)c3oc(=O)cc(C)c3cc2c1CNCCCNCCCN` [Compound 12, 4′-(9-amino-2,6-diaza)nonyl-4,5′,8-trimethylpsoralen], the “R17 inactivation efficiency compared with AMT (in words)” value in data set [1] is reported as “more efficient at inactivating R17 than was AMT”. For the same molecule, the results for the “HIV Log Kill” value in data set [2] (16 μM), in data set [2] (32 μM) and in data set [2] (64 μM) were 0.4 log, 0.8 log and 1.3 log, respectively.

For the molecule `CC[N+](CC)(CC)Cc1c(C)oc2c(C)c3oc(=O)cc(C)c3cc12` [Psoralen A, 4′-(triethylamino) methyl-4,5′,8-trimethylpsoralen], the “HPLC retention time (rough estimate of hydrophobicity)” value in data set [3] was 7.8 min.

`COc1c2occc2c(Br)c2ccc(=O)oc12` [Psoralen B, 5-bromo-8-methoxypsoralen]: the “HPLC retention time (rough estimate of hydrophobicity)” value in data set [3] is 20.0 min.

As to `Cc1oc2c(C)c3oc(=O)cc(C)c3cc2c1CNCCCCCN` [Compound 10, 4′-(7-amino-2-aza)heptyl-4,5′,8-trimethylpsoralen], in data set [1], the “R17 inactivation efficiency compared with AMT (in words)” value was “more efficient at inactivating R17 than was AMT”. In addition, the “HIV Log Kill” value in [2] (16 μM) is on record as 2.0 log; in [2] (32 μM), above 3.5 log; in data set [2] (64 μM), above 3.5 log.

With `COc1c2occc2cc2ccc(=O)oc12` [Compound 8-MOP, 8-Methoxypsoralen, reference compound], in data set [4], the “R17 log kill (32 μM)” value worked out at 0 log. Further, the “mutagenic response in the Ames assay (in words)” value in data set [5] is “weak base-substitution mutagen in TA102 at 500 μg/plate”. Moreover, the “log kill of Pseudomonas” value in [6] was 1.9 logs.

On to `Cc1cc(=O)oc2c(C)c3oc(CNCCCCN)c(C)c3cc12` [Compound 17, 5′-(6-amino-2-aza)hexyl-4,4′,8-trimethylpsoralen], for which, in data set [1], the “R17 inactivation efficiency compared with AMT (in words)” value was “more efficient at inactivating R17 than was AMT”. The “GMP-140 expression, treated sample (PCD) against day 5 untreated control (in words)” value in [7] was “little or no difference”. Moreover, in data set [8], the “bone marrow toxicity and micronucleus formation on dose escalation (in words)” value was “the acutely lethal dose was reached before there were any signs of bone marrow toxicity or micronucleus formation”. In data set [9], the “platelet count, treated against controls (in words)” value was “higher platelet count than samples treated with light alone”. Besides, the “HIV Log Kill” value in [2] (16 μM) was found to be 1.2 log; in data set [2] (32 μM), 2.9 log; in data set [2] (64 μM) it was 3.4 log.
